Data taken from Sander's compilation of Henry's law constants (doi:10.1007/bf00475967).

Assay: Henry solubility constant Hcp at 295 K (mol/(m3 Pa))
Details: reference: Hellmann (1987)

## ClC(Cl)(Cl)Cl [tetrachloromethane]
  Henry solubility constant Hcp at 295 K: 0.00033

## ClC(Cl)=C(Cl)Cl [tetrachloroethene]
  Henry solubility constant Hcp at 295 K: 0.00077

## ClCCl [dichloromethane]
  Henry solubility constant Hcp at 295 K: 0.0057

## CC(=O)CC(C)C [4-methyl-2-pentanone]
  Henry solubility constant Hcp at 295 K: 0.065

## O=[N+]([O-])c1ccc(Cl)cc1 [4-chloronitrobenzene]
  Henry solubility constant Hcp at 295 K: 0.18

## c1ccccc1 [benzene]
  Henry solubility constant Hcp at 295 K: 0.002

## CCCCCOC(C)=O [pentyl ethanoate]
  Henry solubility constant Hcp at 295 K: 0.034

## CC(C)=O [propanone]
  Henry solubility constant Hcp at 295 K: 0.14

## ClC=C(Cl)Cl [trichloroethene]
  Henry solubility constant Hcp at 295 K: 0.00098

## Clc1cc(Cl)cc(Cl)c1 [1,3,5-trichlorobenzene]
  Henry solubility constant Hcp at 295 K: 0.035

## O=[N+]([O-])c1ccccc1 [nitrobenzene]
  Henry solubility constant Hcp at 295 K: 0.14

## Clc1ccccc1 [chlorobenzene]
  Henry solubility constant Hcp at 295 K: 0.0029
